Where two headings read alike, the source gives them in different places. One block for each molecule: values may come before it.
Columns and labels:
[1] = target: T1, c-Met (cytoplasmic domain) (Homo sapiens, UniProt P08581); assay: c-Met Kinase Assay (same methods as for ALK, with modifications); format: biochemical
T1 construct: 10 ng/mL c-Met (cytoplasmic domain, Invitrogen Corporation #PV3143); purchased Invitrogen Corporation PV3143
Procedure, shortened: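 Plates were coated with phospholipase C-γ substrate (10 μg/mL) in TBS, and the reaction was started with 10 ng/mL c-Met cytoplasmic domain and run 15 min at 37 °C. Phosphoproduct was detected with Eu-N1-labelled PT66 antibody. IC50 came from a variable-slope sigmoidal fit of percent inhibition vs log concentration.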

[2] = target: T2, baculovirus-expressed ALK (Homo sapiens, UniProt Q9UM73); assay: ALK Kinase Assay (ELISA-type, time-resolved fluorescence); format: biochemical
T2 construct: host or cells: baculovirus expression system
T2 sequence (Q9UM73 19-1620): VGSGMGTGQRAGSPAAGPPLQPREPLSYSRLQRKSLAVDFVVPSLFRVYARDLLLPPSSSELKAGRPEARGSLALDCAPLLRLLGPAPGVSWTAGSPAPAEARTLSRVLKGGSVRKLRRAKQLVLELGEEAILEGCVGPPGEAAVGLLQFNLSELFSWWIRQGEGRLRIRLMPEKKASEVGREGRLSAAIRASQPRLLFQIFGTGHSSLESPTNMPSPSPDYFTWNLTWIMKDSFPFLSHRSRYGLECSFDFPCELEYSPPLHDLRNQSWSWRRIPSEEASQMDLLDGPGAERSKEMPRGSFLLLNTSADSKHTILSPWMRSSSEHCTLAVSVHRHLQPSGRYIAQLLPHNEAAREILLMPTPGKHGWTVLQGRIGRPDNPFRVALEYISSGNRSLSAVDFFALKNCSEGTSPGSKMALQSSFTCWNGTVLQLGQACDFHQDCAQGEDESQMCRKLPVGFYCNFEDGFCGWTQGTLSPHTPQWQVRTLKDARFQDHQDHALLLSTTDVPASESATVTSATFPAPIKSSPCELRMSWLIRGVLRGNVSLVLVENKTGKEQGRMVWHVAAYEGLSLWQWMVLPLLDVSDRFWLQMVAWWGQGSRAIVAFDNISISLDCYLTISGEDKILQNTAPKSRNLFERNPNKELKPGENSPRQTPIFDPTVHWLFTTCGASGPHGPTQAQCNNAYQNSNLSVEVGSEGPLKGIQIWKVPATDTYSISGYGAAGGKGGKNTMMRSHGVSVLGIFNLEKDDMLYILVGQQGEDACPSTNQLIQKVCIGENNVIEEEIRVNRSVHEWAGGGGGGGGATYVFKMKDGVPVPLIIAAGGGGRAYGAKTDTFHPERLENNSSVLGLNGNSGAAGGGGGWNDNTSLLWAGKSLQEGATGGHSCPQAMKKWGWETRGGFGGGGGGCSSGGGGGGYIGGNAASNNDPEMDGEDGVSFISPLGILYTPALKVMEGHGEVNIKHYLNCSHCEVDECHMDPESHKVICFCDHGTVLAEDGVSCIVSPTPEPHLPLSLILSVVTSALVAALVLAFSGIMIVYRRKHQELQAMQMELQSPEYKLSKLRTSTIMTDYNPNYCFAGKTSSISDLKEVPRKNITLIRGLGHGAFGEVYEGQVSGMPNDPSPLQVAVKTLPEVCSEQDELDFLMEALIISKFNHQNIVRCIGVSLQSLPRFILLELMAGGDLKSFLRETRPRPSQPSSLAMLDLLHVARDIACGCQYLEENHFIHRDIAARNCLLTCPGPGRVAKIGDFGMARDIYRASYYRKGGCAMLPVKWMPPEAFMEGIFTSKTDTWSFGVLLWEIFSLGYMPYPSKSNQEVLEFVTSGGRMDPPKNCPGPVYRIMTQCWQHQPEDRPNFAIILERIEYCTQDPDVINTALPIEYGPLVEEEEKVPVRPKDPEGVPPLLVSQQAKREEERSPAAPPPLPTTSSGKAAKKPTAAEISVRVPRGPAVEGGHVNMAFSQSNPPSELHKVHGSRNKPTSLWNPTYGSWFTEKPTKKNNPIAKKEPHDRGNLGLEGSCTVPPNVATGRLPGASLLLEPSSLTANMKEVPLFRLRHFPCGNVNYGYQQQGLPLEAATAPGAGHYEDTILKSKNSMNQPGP
Procedure, shortened: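 Plates coated with phospholipase C-γ substrate (10 μg/mL in TBS); reaction started with 30 ng/ml ALK and run 15 min at 37° C. Phosphorylated substrate detected with Eu-N1-labeled PT66 antibody. IC50 from sigmoidal variable-slope fit of percent inhibition vs log concentration.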

[3] = 1 μM ATP (Km level), 10 ng/mL c-Met, read-out: cMet Activity (c-Met kinase inhibition, IC50 class)
[4] = 1 μM ATP (Km level), 30 ng/ml ALK, 37° C., 15 minutes, read-out: ALK Activity (ALK kinase inhibition, IC50 class)
[5] = 1 μM ATP (Km level), read-out: cMet Activity (c-Met Kinase Inhibition, IC50)
[6] = 1 μM ATP (Km level), read-out: ALK Activity (ALK Kinase Inhibition, IC50)
[7] = c-Met kinase inhibition, 1 μM ATP, read-out: cMet Activity
[8] = ALK kinase inhibition, 1 μM ATP, read-out: ALK Activity
[9] = c-Met kinase inhibition, 1 μM ATP (Km level), read-out: cMet Activity
[10] = ALK kinase inhibition, 1 μM ATP (Km level), read-out: ALK Activity

T1 sequence (P08581 956-1390 limits assumed): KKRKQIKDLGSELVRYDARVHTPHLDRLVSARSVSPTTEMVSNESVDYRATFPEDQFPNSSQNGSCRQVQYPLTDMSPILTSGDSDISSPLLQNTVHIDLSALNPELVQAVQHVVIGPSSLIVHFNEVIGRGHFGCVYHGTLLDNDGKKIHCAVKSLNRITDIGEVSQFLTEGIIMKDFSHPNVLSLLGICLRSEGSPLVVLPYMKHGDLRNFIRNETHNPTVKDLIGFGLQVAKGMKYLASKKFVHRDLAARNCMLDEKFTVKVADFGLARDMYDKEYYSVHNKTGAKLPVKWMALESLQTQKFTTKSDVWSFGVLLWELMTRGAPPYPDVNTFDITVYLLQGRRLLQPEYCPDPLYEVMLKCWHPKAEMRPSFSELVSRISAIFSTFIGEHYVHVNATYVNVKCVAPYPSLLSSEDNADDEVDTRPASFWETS

IC50 [1, 3]: 1000 to 10000 nM | IC50 [2, 4]: < 100 nM
SMILES: CNC(=O)c1ccc(N)cc1Nc1nc(Nc2ccc3c(c2)C(C)(C)CCC(=O)N3)ncc1Cl [Example 1239, 4-Amino-2-[5-chloro-2-(5,5-dimethyl-2-oxo-2,3,4,5-tetrahydro-1H-1-benzazepin-7-ylamino)-pyrimidin-4-ylamino]-N-methyl-benzamide]

IC50 [1, 5]: > 10000 nM | IC50 [2, 6]: 100 to 1000 nM
SMILES: CCN1C(=O)CCCc2c1ccc(Nc1ncc(Cl)c(NC3C4C=CC(C4)C3C(=O)NC(C)C)n1)c2OC (stereo not drawn) [Example 603, (2-exo-3-exo)-3-[5-Chloro-2-(1-ethyl-6-methoxy-2-oxo-2,3,4,5-tetrahydro-1H-benzo[b]azepin-7-ylamino)-pyrimidin-4-ylamino]-bicyclo[2.2.1]hept-5-ene-2-carboxylic acid isopropylamide]

IC50 [1, 3]: 100 to 1000 nM | IC50 [2, 4]: < 100 nM
SMILES: CN1C(=O)CCC(C)(C)c2cc(Nc3ncc(Cl)c(Nc4ccccc4-n4cccn4)n3)ccc21 [Example 1323, 7-[5-Chloro-4-(2-pyrazol-1-yl-phenylamino)-pyrimidin-2-ylamino]-1,5,5-trimethyl-1,3,4,5-tetrahydro-benzo[b]azepin-2-one]

IC50 [1, 5]: > 10000 nM | IC50 [2, 6]: 1000 to 10000 nM
SMILES: COc1cc2c(cc1Nc1ncc(C(F)(F)F)c(Nc3ccccc3S(=O)(=O)C(C)C)n1)CCN(CC(=O)N(C)C)CC2 [Example 932, 2-(7-Methoxy-8-{4-[2-(propane-2-sulfonyl)-phenylamino]-5-trifluoromethyl-pyrimidin-2-ylamino}-1,2,4,5-tetrahydro-3-benzazepin-3-yl)-N,N-dimethyl-acetamide]

IC50 [1, 7]: 100 to 1000 nM | IC50 [2, 8]: < 100 nM
SMILES: COc1cc2c(cc1Nc1ncc(Cl)c(Nc3ccccc3S(=O)(=O)N3CCC(O)C3)n1)CCN(CCO)CC2 (stereo not drawn) [Example 1551, 1-(2-{5-Chloro-2-[3-(2-hydroxy-ethyl)-8-methoxy-2,3,4,5-tetrahydro-1H-3-benzazepin-7-ylamino]-pyrimidin-4-ylamino}-benzenesulfonyl)-pyrrolidin-3-ol]

IC50 [1, 9]: 100 to 1000 nM | IC50 [2, 10]: < 100 nM
SMILES: CN1C(=O)CCCc2cc(Nc3ncc(Cl)c(Nc4ccc(N5CCOCC5)cc4C(N)=O)n3)ccc21 [Example 355, 2-[5-Chloro-2-(1-methyl-2-oxo-2,3,4,5-tetrahydro-1H-benzo[b]azepin-7-ylamino)pyrimidin-4-ylamino]-5-morpholin-4-yl-benzamide]

IC50 [1, 7]: > 10000 nM | IC50 [2, 8]: < 100 nM
SMILES: COc1cc2c(cc1Nc1ncc(Cl)c(N[C@H]3[C@@H](C(N)=O)[C@@H]4C=C[C@H]3C4)n1)CCN(CCO)CC2 [Example 1532, (1S,2S,3R,4R)-3-{5-Chloro-2-[3-(2-hydroxy-ethyl)-8-methoxy-2,3,4,5-tetrahydro-1H-3-benzazepin-7-ylamino]-pyrimidin-4-ylamino}-bicyclo[2.2.1]hept-5-ene-2-carboxylic acid amide]

IC50 [1, 3]: 1000 to 10000 nM | IC50 [2, 4]: < 100 nM
SMILES: COc1cc2c(cc1Nc1ncc(Cl)c(Nc3ccccc3S(=O)(=O)N3CCCC3)n1)CCC(NCCO)CC2 (stereo not drawn) [Example 1087, 2-(2-{5-Chloro-4-[2-(pyrrolidine-1-sulfonyl)-phenylamino]-pyrimidin-2-ylamino}-3-methoxy-6,7,8,9-tetrahydro-5H-benzocyclohepten-7-ylamino)-ethanol]

IC50 [1, 9]: < 100 nM | IC50 [2, 10]: 100 to 1000 nM
SMILES: C#CCN1CC2OC(C1)c1cc(Nc3ncc(Cl)c(Nc4ccccc4C(=O)NC)n3)ccc12 (stereo not drawn) [Example 63, 2-[5-Chloro-2-(10-prop-2-ynyl-12-oxa-10-aza-tricyclo[6.3.1.0*2,7*]dodeca-2,4,6-trien-4-ylamino)-pyrimidin-4-ylamino]-N-methyl-benzamide]

IC50 [1, 5]: > 10000 nM | IC50 [2, 6]: < 100 nM
SMILES: COc1cc2c(cc1Nc1ncc(Cl)c(Nc3ccc(N4CCN(C)CC4)cc3OC)n1)CCN(CC(F)F)CC2 [Example 764, 5-Chloro-N*2*-[3-(2,2-difluoro-ethyl)-8-methoxy-2,3,4,5-tetrahydro-1H-benzo[d]azepin-7-yl]-N*4*-[2-methoxy-4-(4-methyl-piperazin-1-yl)-phenyl]-pyrimidine-2,4-diamine]

IC50 [1, 5]: > 10000 nM | IC50 [2, 6]: 1000 to 10000 nM
SMILES: CCN1C(=O)CCCc2c1ccc(Nc1ncc(Cl)c(Nc3ccc(OC)cc3C(=O)OC(C)C)n1)c2OC [Example 608, 2-[5-Chloro-2-(1-ethyl-6-methoxy-2-oxo-2,3,4,5-tetrahydro-1H-benzo[b]azepin-7-ylamino)-pyrimidin-4-ylamino]-5-methoxy-benzoic acid isopropyl ester]

IC50 [1, 3]: 1000 to 10000 nM | IC50 [2, 4]: < 100 nM
SMILES: COCCCNC(=O)c1ccccc1Nc1nc(Nc2ccc3c(c2)CCN(CCOC)CC3)ncc1Cl [Example 1399, {5-Chloro-2-[3-(2-methoxy-ethyl)-2,3,4,5-tetrahydro-1H-benzo[d]azepin-7-ylamino]-pyrimidin-4-ylamino}-N-(3-methoxy-propyl)-benzamide]

IC50 [1, 5]: > 10000 nM | IC50 [2, 6]: < 100 nM
SMILES: COc1cc2c(cc1Nc1ncc(Cl)c(Nc3ccc(N4CCN(C)CC4)cc3OC)n1)CCN(CC(N)=O)CC2 [Example 807, 2-(7-{5-Chloro-4-[2-methoxy-4-(4-methyl-piperazin-1-yl)-phenylamino]-pyrimidin-2-ylamino}-8-methoxy-1,2,4,5-tetrahydro-benzo[d]azepin-3-yl)-acetamide]

IC50 [1, 7]: 100 to 1000 nM | IC50 [2, 8]: 100 to 1000 nM
SMILES: CNC(=O)c1ccccc1Nc1nc(Nc2ccc3c(c2)N(C(=O)CN2CCCC2)CCCO3)ncc1Cl [Example 1706, 2-{5-Chloro-2-[9-(2-pyrrolidin-1-yl-acetyl)-6,7,8,9-tetrahydro-5-oxa-9-aza-benzocyclohepten-2-ylamino]-pyrimidin-4-ylamino}-N-methyl-benzamide]

IC50 [1, 9]: < 100 nM | IC50 [2, 10]: 100 to 1000 nM
SMILES: CCN1CCN(C(C)=O)c2cc(Nc3ncc(Cl)c(Nc4c(F)cccc4C(=O)NC)n3)ccc2C1 [Example 1879, 2-[2-(1-Acetyl-4-ethyl-2,3,4,5-tetrahydro-1H-benzo[e][1,4]diazepin-8-ylamino)-5-chloro-pyrimidin-4-ylamino]-3-fluoro-N-methyl-benzamide]

Source: patent publication US8148391B2 (Cephalon, Inc., priority 2006, dated 2012)
